In PubChem BioAssay AID2060499 (Molecular Pharmacology Branch, DTP, NCI, 2025):

Test system: 777334-354-R2-J4-PDC tumor spheroids with HUVEC/MSC, viability
Test: Anticancer human tumor 777334-354-R2-J4-PDC patient-derived pancreatic adenocarcinoma cell line growth inhibition [GQUAD]
Conditions: for IC50: curve of first compound; for viability, T/C: stronger effect = lower value
Method in brief: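 Viability of tumor cells grown as complex spheroids with endothelial and stromal cells, exposed to drug combinations. Top concentration at or near clinical Cmax (else 10 microM), diluted in half-log increments.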

[1] = second compound 0.0316 µM, first compound 0.0316 µM
[2] = second compound 0.0316 µM, first compound 0.1 µM
[3] = second compound 0.0316 µM, first compound 0.316 µM
[4] = second compound 0.0316 µM, first compound 1 µM
[5] = second compound 0.0316 µM, first compound 3.16 µM
[6] = second compound 0.0316 µM, first compound 10 µM
[7] = second compound 0.1 µM, first compound 0.0316 µM
[8] = second compound 0.1 µM, first compound 0.1 µM
[9] = second compound 0.1 µM, first compound 0.316 µM
[10] = second compound 0.1 µM, first compound 1 µM
[11] = second compound 0.1 µM, first compound 3.16 µM
[12] = second compound 0.1 µM, first compound 10 µM
[13] = second compound 0.316 µM, first compound 0.0316 µM
[14] = second compound 0.316 µM, first compound 0.1 µM
[15] = second compound 0.316 µM, first compound 0.316 µM
[16] = second compound 0.316 µM, first compound 1 µM
[17] = second compound 0.316 µM, first compound 3.16 µM
[18] = second compound 0.316 µM, first compound 10 µM
[19] = second compound 1 µM, first compound 0.0316 µM
[20] = second compound 1 µM, first compound 0.1 µM
[21] = second compound 1 µM, first compound 0.316 µM
[22] = second compound 1 µM, first compound 1 µM
[23] = second compound 1 µM, first compound 3.16 µM
[24] = second compound 1 µM, first compound 10 µM
[25] = second compound 3.16 µM, first compound 0.0316 µM
[26] = second compound 3.16 µM, first compound 0.1 µM
[27] = second compound 3.16 µM, first compound 0.316 µM
[28] = second compound 3.16 µM, first compound 1 µM
[29] = second compound 3.16 µM, first compound 3.16 µM
[30] = second compound 3.16 µM, first compound 10 µM
[31] = second compound 10 µM, first compound 0.0316 µM
[32] = second compound 10 µM, first compound 0.1 µM
[33] = second compound 10 µM, first compound 0.316 µM
[34] = second compound 10 µM, first compound 1 µM
[35] = second compound 10 µM, first compound 3.16 µM
[36] = second compound 10 µM, first compound 10 µM
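Further: spheroids exposed to compounds for 7 days before readout.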

Q: How did the IC50 (second compound 0.0316 µM) turn out when `O=C(NO)c1cnc(N2CCN(S(=O)(=O)c3ccc4ccccc4c3)CC2)nc1` + Cc1cnc(CNC(=O)c2c(=O)c3ccc(N4CCCN(C)CC4)nc3n3c2sc2ccccc23)cn1 was run?
A: Its IC50 is 726 nM.

Q: What about the IC50 (second compound 0.1 µM) of the same molecule?
A: Its IC50 is 332 nM.

Q: And the IC50 (second compound 0.316 µM)?
A: The IC50 was 537 nM.

Q: And the IC50 (second compound 1 µM)?
A: The IC50 was 474 nM.

Q: And the IC50 (second compound 3.16 µM)?
A: Its IC50 is 331 nM.

Q: And the IC50 (second compound 10 µM)?
A: The IC50 was under 31.6 nM.

Q: And the viability, T/C [1]?
A: Its viability, T/C is 83.7%.

Q: What about the viability, T/C [2] of the same molecule?
A: The viability, T/C was 71.9%.

Q: What about the viability, T/C [3] of the same molecule?
A: Its viability, T/C is 77.2%.

Q: What about the viability, T/C [4] of the same molecule?
A: The viability, T/C was 39.7%.

Q: What about the viability, T/C [5] of the same molecule?
A: Its viability, T/C is 3.07%.

Q: What about the viability, T/C [6] of the same molecule?
A: The viability, T/C was 0.21%.

Q: And the viability, T/C [7]?
A: Its viability, T/C is 90.3%.

Q: What about the viability, T/C [8] of the same molecule?
A: Its viability, T/C is 63.1%.

Q: What about the viability, T/C [9] of the same molecule?
A: Its viability, T/C is 55.2%.

Q: What about the viability, T/C [10] of the same molecule?
A: Its viability, T/C is 36.6%.

Q: And the viability, T/C [11]?
A: The viability, T/C was 5.24%.

Q: What about the viability, T/C [12] of the same molecule?
A: Its viability, T/C is 0.33%.

Q: What about the viability, T/C [13] of the same molecule?
A: Its viability, T/C is 69.3%.

Q: And the viability, T/C [14]?
A: The viability, T/C was 72%.

Q: And the viability, T/C [15]?
A: Its viability, T/C is 53.8%.

Q: What about the viability, T/C [16] of the same molecule?
A: The viability, T/C was 42.7%.

Q: And the viability, T/C [17]?
A: The viability, T/C was 5.34%.

Q: And the viability, T/C [18]?
A: Its viability, T/C is 0.23%.

Q: And the viability, T/C [19]?
A: The viability, T/C was 65.6%.

Q: And the viability, T/C [20]?
A: The viability, T/C was 60%.

Q: What about the viability, T/C [21] of the same molecule?
A: The viability, T/C was 55%.

Q: What about the viability, T/C [22] of the same molecule?
A: Its viability, T/C is 37.7%.

Q: And the viability, T/C [23]?
A: The viability, T/C was 4.8%.

Q: And the viability, T/C [24]?
A: Its viability, T/C is 0.13%.

Q: And the viability, T/C [25]?
A: Its viability, T/C is 49%.

Q: What about the viability, T/C [26] of the same molecule?
A: Its viability, T/C is 53.8%.

Q: What about the viability, T/C [27] of the same molecule?
A: Its viability, T/C is 50.2%.

Q: And the viability, T/C [28]?
A: The viability, T/C was 31.5%.

Q: What about the viability, T/C [29] of the same molecule?
A: Its viability, T/C is 0.68%.

Q: And the viability, T/C [30]?
A: Its viability, T/C is 0.12%.

Q: What about the viability, T/C [31] of the same molecule?
A: The viability, T/C was 50.2%.

Q: What about the viability, T/C [32] of the same molecule?
A: Its viability, T/C is 44.8%.

Q: What about the viability, T/C [33] of the same molecule?
A: The viability, T/C was 48.4%.

Q: What about the viability, T/C [34] of the same molecule?
A: The viability, T/C was 0.22%.

Q: What about the viability, T/C [35] of the same molecule?
A: The viability, T/C was 2.65%.

Q: What about the viability, T/C [36] of the same molecule?
A: The viability, T/C was 0.22%.

Q: `O=C(NO)c1cnc(N2CCN(S(=O)(=O)c3ccc4ccccc4c3)CC2)nc1` + Cc1[nH]c2ccc(F)cc2c1-c1nc2c3cccnc3c3ncccc3c2[nH]1 was tested. Which IC50 (second compound 0.0316 µM) did it give?
A: Its IC50 is 1440 nM.

Q: And the IC50 (second compound 0.1 µM)?
A: The IC50 was 1390 nM.

Q: And the IC50 (second compound 0.316 µM)?
A: Its IC50 is 1520 nM.

Q: And the IC50 (second compound 1 µM)?
A: Its IC50 is 1580 nM.

Q: And the IC50 (second compound 3.16 µM)?
A: Its IC50 is 1050 nM.

Q: And the IC50 (second compound 10 µM)?
A: Its IC50 is under 31.6 nM.

Q: And the viability, T/C [1]?
A: The viability, T/C was 104%.

Q: And the viability, T/C [2]?
A: Its viability, T/C is 91.6%.

Q: What about the viability, T/C [3] of the same molecule?
A: Its viability, T/C is 87.3%.

Q: And the viability, T/C [4]?
A: Its viability, T/C is 68.3%.

Q: And the viability, T/C [5]?
A: Its viability, T/C is 12.7%.

Q: What about the viability, T/C [6] of the same molecule?
A: Its viability, T/C is 2.55%.

Q: What about the viability, T/C [7] of the same molecule?
A: The viability, T/C was 92.7%.

Q: What about the viability, T/C [8] of the same molecule?
A: The viability, T/C was 101%.

Q: What about the viability, T/C [9] of the same molecule?
A: Its viability, T/C is 91.6%.

Q: What about the viability, T/C [10] of the same molecule?
A: Its viability, T/C is 64.6%.

Q: And the viability, T/C [11]?
A: Its viability, T/C is 13.6%.

Q: And the viability, T/C [12]?
A: The viability, T/C was 0.23%.

Q: And the viability, T/C [13]?
A: The viability, T/C was 99.2%.

Q: What about the viability, T/C [14] of the same molecule?
A: The viability, T/C was 92.9%.

Q: What about the viability, T/C [15] of the same molecule?
A: Its viability, T/C is 86.2%.

Q: What about the viability, T/C [16] of the same molecule?
A: The viability, T/C was 67.1%.

Q: What about the viability, T/C [17] of the same molecule?
A: Its viability, T/C is 22%.

Q: What about the viability, T/C [18] of the same molecule?
A: The viability, T/C was 2.6%.

Q: What about the viability, T/C [19] of the same molecule?
A: The viability, T/C was 88.4%.

Q: And the viability, T/C [20]?
A: Its viability, T/C is 84.6%.

Q: And the viability, T/C [21]?
A: Its viability, T/C is 71.8%.

Q: What about the viability, T/C [22] of the same molecule?
A: Its viability, T/C is 70.1%.

Q: What about the viability, T/C [23] of the same molecule?
A: The viability, T/C was 22.5%.

Q: What about the viability, T/C [24] of the same molecule?
A: Its viability, T/C is 2.98%.

Q: What about the viability, T/C [25] of the same molecule?
A: The viability, T/C was 55.7%.

Q: What about the viability, T/C [26] of the same molecule?
A: The viability, T/C was 41.7%.

Q: What about the viability, T/C [27] of the same molecule?
A: The viability, T/C was 67%.

Q: And the viability, T/C [28]?
A: Its viability, T/C is 50.5%.

Q: What about the viability, T/C [29] of the same molecule?
A: Its viability, T/C is 17.5%.

Q: And the viability, T/C [30]?
A: The viability, T/C was 0.99%.

Q: And the viability, T/C [31]?
A: Its viability, T/C is 38.4%.

Q: And the viability, T/C [32]?
A: The viability, T/C was 38.7%.

Q: And the viability, T/C [33]?
A: Its viability, T/C is 52.4%.

Q: What about the viability, T/C [34] of the same molecule?
A: Its viability, T/C is 41.9%.

Q: What about the viability, T/C [35] of the same molecule?
A: Its viability, T/C is 19.7%.

Q: And the viability, T/C [36]?
A: The viability, T/C was 2.58%.

Q: Which results are given for `CCCS(=O)(=O)Nc1ccc(F)c(C(=O)c2c[nH]c3ncc(-c4ccc(Cl)cc4)cc23)c1F` + Cc1cnc(CNC(=O)c2c(=O)c3ccc(N4CCCN(C)CC4)nc3n3c2sc2ccccc23)cn1?
A: IC50 (second compound 0.0316 µM): 7160 nM; IC50 (second compound 0.1 µM): 6930 nM; IC50 (second compound 0.316 µM): 6740 nM; IC50 (second compound 1 µM): 7160 nM; IC50 (second compound 3.16 µM): > 10000 nM; IC50 (second compound 10 µM): 3870 nM; viability, T/C [1]: 99.3%; viability, T/C [2]: 89.1%; viability, T/C [3]: 105%; viability, T/C [4]: 94.3%; viability, T/C [5]: 106%; viability, T/C [6]: 30%; viability, T/C [7]: 83.5%; viability, T/C [8]: 88.7%; viability, T/C [9]: 104%; viability, T/C [10]: 95.5%; viability, T/C [11]: 88%; viability, T/C [12]: 32.1%; viability, T/C [13]: 88.7%; viability, T/C [14]: 91.7%; viability, T/C [15]: 69%; viability, T/C [16]: 92.6%; viability, T/C [17]: 93.3%; viability, T/C [18]: 30.7%; viability, T/C [19]: 68.8%; viability, T/C [20]: 77.6%; viability, T/C [21]: 78.5%; viability, T/C [22]: 71.2%; viability, T/C [23]: 74.9%; viability, T/C [24]: 40.2%; viability, T/C [25]: 59%; viability, T/C [26]: 61.1%; viability, T/C [27]: 68.9%; viability, T/C [28]: 71.2%; viability, T/C [29]: 72%; viability, T/C [30]: 43.1%; viability, T/C [31]: 52.7%; viability, T/C [32]: 48.6%; viability, T/C [33]: 68.2%; viability, T/C [34]: 68.4%; viability, T/C [35]: 65.2%; viability, T/C [36]: 0.24%
